US20100254965A1, “Adenosine Signaling in Diagnosis, Treatment, and Prevention of Priapism and Erectile Dysfunction” (BOARD OF REGENTS ,THE UNIVERSITY OF TEXAS SYSTEM, priority 2006, published 2010)

Legend:
[1] = system: corpus cavernosal strips (CCS); assay: cAMP levels in isolated CCS (penile organ culture) in response to adenosine; format: cell-based, mouse
Description: FIG. 17. A2BR signaling is required for adenosine-mediated corpus cavernosal strips (CCS) relaxation. (a) CCS of wild type mice were treated with different concentrations of theophiline (1-10 μM) in the presence or absence of adenosine (100 μM). The force changes were measured by force transducer. Data are expressed as mean±SE. *p<0.05, adenosine treated versus the control, **p<0.05, theophiline treated versus the untreated, N=5. (b) CCS from wild type, A2AR, A1R A2BR and A3R-deficient mice were treated with different concentrations of adenosine. The relaxation was measured by force transducer. Data are expressed as mean±SE. *p<0.05, adenosine treated versus the wild type. […] 10 min after treatment, cellular extracts were collected and cAMP levels were measured by using a commercial enzyme immunoassay kit (Amersham Pharmacia). Data are expressed as mean±SE. *p<0.05, adenosine treated versus the control without treatment; **p<0.05, adenosine treated with MRS1706 versus the adenosine treated alone; ***p<0.05, CCS of A2BR-deficient mice treated with adenosine versus the CCS of wild type mice treated with adenosine. […]
In vitro corpus cavernosum tissue culture. […] Subsequently cavernosal strips were removed at and immediately frozen in liquid nitrogen for phosphorylation of myosin light chain determined by western blot analysis (see below). […]

[2] = system: corpus cavernosal strips (CCS); assay: EFS-induced relaxation of CCS of SCD transgenic mice and controls; format: cell-based, mouse
Description: FIG. 21. Priapic activity seen in SCD transgenic mice is dependent on elevated adenosine in penis via A2BR signaling. (a) Adenosine levels in the penis increased in SCD transgenic mice. Perchloric acid extracts of penile tissues from SCD transgenic mice and control mice were analyzed by HPLC to determine the levels of adenosine. The data are expressed as mean±SE. *p<0.005, (control n=5 and SCD transgenic mice n=6), SCD transgenic mice versus the controls. (b) Increased corpus cavernosum strips (CCS) relaxation by electrical field stimulation (EFS) in SCD transgenic mice. Relaxation effect of EFS with different voltages (0-30V) at 30 Hz and 0.5 ms pulse width, alternating polarity between pulses, in 10 μM phenylephrine-precontracted CCS from the controls (n=5) and SCD transgenic mice (n=5). (c-e) Prolonged penile erection seen in SCD transgenic mice is due to high levels of adenosine in the penis via A2BR signaling. Average EFS-induced relaxation from the PE-precontracted CC strips of the controls and SCD transgenic mice treated without or with PEG-ADA, MRS1706 or ZM241389. EFS-induced force change (c), duration of relaxation by EFS (d) and area under basal line (e) were representative of the CCS relaxation. (n=5 for the controls and n=5 for SCD transgenic mice with or without PEG-ADA, MRS1706 or ZM241389 treatment, respectively). Data are given as means±SE. *p<0.05, SCD transgenic mice versus the controls, **p<0.05, CCS of […] with PEG-ADA, MRS1706 or ZM241389 treatment versus CCS of SCD transgenic mice without treatment; ***p<0.05, CCS of the control mice with MRS1706 and/or L-NAME treatment versus CCS of the control mice without treatment.
Sickle cell disease (SCD) transgenic mice, expressing exclusively human sickle hemoglobin, were also used. These mice were age-matched, adult male homozygotes [SS^−/−, consisting of a transgene and two targeted gene deletions: (Tg (Hu-miniLCR alpha 1G gamma A gamma delta beta s) Hba0//Hba0 Hbb0//Hbb00) and heterozygotes (SS^−/+, SS^−/− genotype except Hbb0//Hbb+), developed on a mixed-strain background (mouse strains FVB/N, 129, DBA/2, C57BL/6, Black Swiss)^94,95.
Function experiments. The tunica albuginea was cut longitudinally, starting at the most proximal point of the corpus cavernosum (CC) toward the penile shaft, and the erectile tissue was partially dissected free from the tunica. One strip of tissue (0.3×0.3×3 mm) was obtained from each corpus cavernosum. The contractility of each isolated corpus cavernosum smooth muscle cells (CCSM) strip was measured using an isometric force transducer (AD Instrument Inc., Georgia, Vt., USA). The strip was mounted in a thermostatically controlled tissue bath containing aerated PSS (mM: 119 NaCl, 4.7 KCl, 24 NaHCO 3, 1.2 KH2PO4, 2.5 CaCl2, 1.2 MgSO4, 0.023 EDTA, and 11 glucose; 5 ml volume, 95% O2 and 5% CO2, 37° C.) and stretched to a resting tension of 0.1 mN. The contractile responses of the strips were analysed by adding 10 μM phenylephrine to the bath, and force changes were recorded in response to drug application and to electrical field stimulation. The particular electrical field stimulation parameters of 0-30V, 30 HZ with a pulse width of approximately 0.5 ms, are commonly used in the mice. […] The changes of cAMP and cGMP contents in CC strips were subsequently measured by commercial enzyme immunoassay kit (Amersham Pharmacia) (see below).

[3] = CCS of SCD transgenic mice versus untreated CCS

Row | Compound | adenosine-mediated induction of cAMP was inhibited ([1]; CCS, MRS1706 10 μM, L-NAME 100 μM) | force, duration and area under baseline of EFS-induced relaxation [2, 3] | force, duration and area under baseline of EFS-induced relaxation ([2]; CCS of the controls) | cAMP levels ([1]; wild type penile organ culture, 10 min)
1 | CCCn1c(=O)c2[nH]c(-c3ccc(OCC(=O)Nc4ccc(C(C)=O)cc4)cc3)nc2n(CCC)c1=O [MRS1706] | inhibited | reduced the force, duration and area under baseline | decreased the force, duration and area under baseline | –
2 | Nc1nc(NCCc2ccc(O)cc2)nc2nc(-c3ccco3)nn12 [ZM241385] | – | not | – | –
3 | Nc1ncnc2c1ncn2[C@@H]1O[C@H](CO)[C@@H](O)[C@H]1O [adenosine] | – | – | – | induced cAMP levels in a dose-dependent manner
